ChEMBL document CHEMBL1201862, “PubChem BioAssay data set” (2004)
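Protocol summary: plate cells (96-well), add compound at 5 concentrations, incubate 48 h, interpolate endpoints linearly. Abbreviation: GI50, concentration required for 50% inhibition of growth.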 Activity calls are given as the source filed them. Rule as the data show it: active = GI50 up to about 1.1 µM and inactive = higher.

Tests used:
Test in all cases: growth of human tumour cells (NCI), 48 h
UACC-62 = system: UACC-62
COLO 205 = system: COLO 205
M14 = system: M14
HL-60 = system: HL-60
SNB-75 = system: SNB-75
CCRF-CEM = system: CCRF-CEM
IGROV-1 = system: IGROV-1
SR = system: SR
OVCAR-3 = system: OVCAR-3
U-251 = system: U-251
HOP-92 = system: HOP-92
UACC-257 = system: UACC-257
MCF7 = system: MCF7
SK-MEL-2 = system: SK-MEL-2
A498 = system: A498
OVCAR-5 = system: OVCAR-5
SNB-19 = system: SNB-19
MDA-MB-435 = system: MDA-MB-435
LOX IMVI = system: LOX IMVI
A549 = system: A549
OVCAR-8 = system: OVCAR-8
NCI/ADR-RES = system: NCI/ADR-RES
ACHN = system: ACHN
TK-10 = system: TK-10
PC-3 = system: PC-3
KM12 = system: KM12
HCT-116 = system: HCT-116
HT-29 = system: HT-29
MOLT-4 = system: MOLT-4
EKVX = system: EKVX
UO-31 = system: UO-31
Malme-3M = system: Malme-3M
SK-OV-3 = system: SK-OV-3
SF-295 = system: SF-295
MDA-N = system: MDA-N
SN12C = system: SN12C
HCC 2998 = system: HCC 2998
RXF 393 = system: RXF 393
T47D = system: T47D
SW-620 = system: SW-620
SK-MEL-28 = system: SK-MEL-28
786-0 = system: 786-0
RPMI-8226 = system: RPMI-8226
NCI-H226 = system: NCI-H226
DU-145 = system: DU-145
NCI-H460 = system: NCI-H460
Hs-578T = system: Hs-578T
SF-268 = system: SF-268
HCT-15 = system: HCT-15
K562 = system: K562
HOP-62 = system: HOP-62
SK-MEL-5 = system: SK-MEL-5
SF-539 = system: SF-539
NCI-H522 = system: NCI-H522
MDA-MB-231 = system: MDA-MB-231
OVCAR-4 = system: OVCAR-4
NCI-H23 = system: NCI-H23
CAKI-1 = system: CAKI-1

Question: Which results are given for CC[C@@]1(O)C[C@H](OC2CC(N(C)C)C(OC3CC(O)C(OC4CCC(=O)C(C)O4)C(C)O3)C(C)O2)c2c(cc3c(c2O)C(=O)c2c(O)ccc(O)c2C3=O)[C@H]1C(=O)OC (stereo partly drawn)?
Answer: GI50 (UACC-62): < 0.01 µM (active); GI50 (COLO 205): < 0.0001 µM (active); GI50 (M14): < 0.01 µM (active); GI50 (HL-60): < 0.0001 µM (active); GI50 (SNB-75): 0.0181 µM (active); GI50 (CCRF-CEM): < 0.0001 µM (active); GI50 (IGROV-1): < 0.0001 µM (active); GI50 (SR): < 0.01 µM (active); GI50 (OVCAR-3): < 0.01 µM (active); GI50 (U-251): < 0.01 µM (active); GI50 (HOP-92): < 0.01 µM (active); GI50 (UACC-257): 0.0153 µM (active); GI50 (MCF7): < 0.0001 µM (active); GI50 (SK-MEL-2): < 0.01 µM (active); GI50 (A498): < 0.01 µM (active); GI50 (OVCAR-5): 0.01 µM (active); GI50 (SNB-19): < 0.0001 µM (active)

Question: How did the GI50 (MDA-MB-435) turn out when CN(C)CCCN1c2ccc([N+](=O)[O-])cc2CCc2cc([N+](=O)[O-])ccc21 was run?
Answer: 13.4 µM (inactive)

Question: And the GI50 (LOX IMVI)?
Answer: 16.9 µM (inactive)

Question: What about the GI50 (UACC-62) of the same molecule?
Answer: 13.5 µM (inactive)

Question: What about the GI50 (COLO 205) of the same molecule?
Answer: 14.9 µM (inactive)

Question: And the GI50 (A549)?
Answer: 17.9 µM (inactive)

Question: And the GI50 (OVCAR-8)?
Answer: 15.5 µM (inactive)

Question: And the GI50 (M14)?
Answer: 16.7 µM (inactive)

Question: And the GI50 (NCI/ADR-RES)?
Answer: 14.3 µM (inactive)

Question: And the GI50 (HL-60)?
Answer: 13.6 µM (inactive)

Question: And the GI50 (ACHN)?
Answer: 11.4 µM (inactive)

Question: And the GI50 (TK-10)?
Answer: 11.3 µM (inactive)

Question: And the GI50 (SNB-75)?
Answer: 12.3 µM (inactive)

Question: And the GI50 (PC-3)?
Answer: 16.4 µM (inactive)

Question: And the GI50 (KM12)?
Answer: 14.8 µM (inactive)

Question: What about the GI50 (HCT-116) of the same molecule?
Answer: 14.4 µM (inactive)

Question: What about the GI50 (HT-29) of the same molecule?
Answer: 14.8 µM (inactive)

Question: What about the GI50 (IGROV-1) of the same molecule?
Answer: 14.9 µM (inactive)

Question: And the GI50 (MOLT-4)?
Answer: 14.5 µM (inactive)

Question: And the GI50 (EKVX)?
Answer: 14.1 µM (inactive)

Question: And the GI50 (UO-31)?
Answer: 22.5 µM (inactive)

Question: And the GI50 (Malme-3M)?
Answer: 10.3 µM (inactive)

Question: What about the GI50 (OVCAR-3) of the same molecule?
Answer: 15.5 µM (inactive)

Question: And the GI50 (SK-OV-3)?
Answer: 17.2 µM (inactive)

Question: And the GI50 (SF-295)?
Answer: 15.6 µM (inactive)

Question: What about the GI50 (MDA-N) of the same molecule?
Answer: 13.8 µM (inactive)

Question: And the GI50 (U-251)?
Answer: 16.2 µM (inactive)

Question: What about the GI50 (SN12C) of the same molecule?
Answer: 15.8 µM (inactive)

Question: What about the GI50 (HCC 2998) of the same molecule?
Answer: 9.84 µM (inactive)

Question: What about the GI50 (RXF 393) of the same molecule?
Answer: 6.98 µM (inactive)

Question: What about the GI50 (T47D) of the same molecule?
Answer: 15.6 µM (inactive)

Question: And the GI50 (SW-620)?
Answer: 15.3 µM (inactive)

Question: And the GI50 (SK-MEL-28)?
Answer: 15.3 µM (inactive)

Question: And the GI50 (786-0)?
Answer: 12.1 µM (inactive)

Question: What about the GI50 (RPMI-8226) of the same molecule?
Answer: 20.4 µM (inactive)

Question: And the GI50 (NCI-H226)?
Answer: 15.1 µM (inactive)

Question: What about the GI50 (DU-145) of the same molecule?
Answer: 16.6 µM (inactive)

Question: What about the GI50 (HOP-92) of the same molecule?
Answer: 5.26 µM (inactive)

Question: And the GI50 (NCI-H460)?
Answer: 15.1 µM (inactive)

Question: And the GI50 (Hs-578T)?
Answer: 15.2 µM (inactive)

Question: What about the GI50 (UACC-257) of the same molecule?
Answer: 15.2 µM (inactive)

Question: And the GI50 (SF-268)?
Answer: 15.4 µM (inactive)

Question: What about the GI50 (SK-MEL-2) of the same molecule?
Answer: 20.7 µM (inactive)

Question: What about the GI50 (HCT-15) of the same molecule?
Answer: 16.7 µM

Question: And the GI50 (K562)?
Answer: 19.4 µM (inactive)

Question: What about the GI50 (HOP-62) of the same molecule?
Answer: 16 µM (inactive)

Question: And the GI50 (SK-MEL-5)?
Answer: 15.7 µM (inactive)

Question: What about the GI50 (SF-539) of the same molecule?
Answer: 15.7 µM (inactive)

Question: And the GI50 (NCI-H522)?
Answer: 16.9 µM (inactive)

Question: And the GI50 (MDA-MB-231)?
Answer: 15.9 µM (inactive)

Question: And the GI50 (OVCAR-5)?
Answer: 13.7 µM (inactive)

Question: And the GI50 (SNB-19)?
Answer: 17.8 µM (inactive)

Question: How did the GI50 (MDA-MB-435) turn out when CNC(=O)CCCNC(=O)CCCCC(=O)N(C)C was run?
Answer: > 100 µM (inactive)

Question: And the GI50 (UACC-62)?
Answer: > 100 µM (inactive)

Question: And the GI50 (COLO 205)?
Answer: > 100 µM (inactive)

Question: And the GI50 (A549)?
Answer: > 100 µM (inactive)

Question: What about the GI50 (OVCAR-8) of the same molecule?
Answer: > 100 µM (inactive)

Question: And the GI50 (OVCAR-4)?
Answer: > 100 µM (inactive)

Question: What about the GI50 (M14) of the same molecule?
Answer: > 100 µM (inactive)

Question: And the GI50 (NCI/ADR-RES)?
Answer: > 100 µM (inactive)

Question: What about the GI50 (ACHN) of the same molecule?
Answer: > 100 µM (inactive)

Question: And the GI50 (TK-10)?
Answer: > 100 µM (inactive)

Question: And the GI50 (PC-3)?
Answer: > 100 µM (inactive)

Question: And the GI50 (KM12)?
Answer: > 100 µM (inactive)

Question: And the GI50 (HCT-116)?
Answer: > 100 µM (inactive)

Question: What about the GI50 (HT-29) of the same molecule?
Answer: > 100 µM (inactive)

Question: And the GI50 (MOLT-4)?
Answer: 89.5 µM (inactive)

Question: What about the GI50 (UO-31) of the same molecule?
Answer: > 100 µM (inactive)

Question: What about the GI50 (Malme-3M) of the same molecule?
Answer: > 100 µM (inactive)

Question: And the GI50 (OVCAR-3)?
Answer: > 100 µM (inactive)

Question: What about the GI50 (SK-OV-3) of the same molecule?
Answer: > 100 µM (inactive)

Question: What about the GI50 (SF-295) of the same molecule?
Answer: > 100 µM (inactive)

Question: What about the GI50 (MDA-N) of the same molecule?
Answer: > 100 µM (inactive)

Question: And the GI50 (U-251)?
Answer: > 100 µM (inactive)

Question: What about the GI50 (SN12C) of the same molecule?
Answer: > 100 µM (inactive)

Question: What about the GI50 (RXF 393) of the same molecule?
Answer: > 100 µM (inactive)

Question: And the GI50 (T47D)?
Answer: > 100 µM (inactive)

Question: And the GI50 (SW-620)?
Answer: > 100 µM (inactive)

Question: What about the GI50 (SK-MEL-28) of the same molecule?
Answer: > 100 µM (inactive)

Question: And the GI50 (786-0)?
Answer: > 100 µM (inactive)

Question: What about the GI50 (RPMI-8226) of the same molecule?
Answer: > 100 µM (inactive)

Question: What about the GI50 (DU-145) of the same molecule?
Answer: > 100 µM (inactive)

Question: What about the GI50 (NCI-H460) of the same molecule?
Answer: > 100 µM (inactive)

Question: And the GI50 (SF-268)?
Answer: > 100 µM (inactive)

Question: And the GI50 (NCI-H23)?
Answer: > 100 µM (inactive)

Question: What about the GI50 (MCF7) of the same molecule?
Answer: > 100 µM (inactive)

Question: What about the GI50 (SK-MEL-2) of the same molecule?
Answer: > 100 µM (inactive)

Question: What about the GI50 (CAKI-1) of the same molecule?
Answer: > 100 µM (inactive)

Question: What about the GI50 (K562) of the same molecule?
Answer: > 100 µM (inactive)

Question: What about the GI50 (A498) of the same molecule?
Answer: > 100 µM (inactive)

Question: What about the GI50 (HOP-62) of the same molecule?
Answer: > 100 µM (inactive)

Question: What about the GI50 (SK-MEL-5) of the same molecule?
Answer: > 100 µM (inactive)

Question: And the GI50 (SF-539)?
Answer: > 100 µM (inactive)

Question: What about the GI50 (NCI-H522) of the same molecule?
Answer: > 100 µM (inactive)

Question: What about the GI50 (MDA-MB-231) of the same molecule?
Answer: > 100 µM (inactive)

Question: And the GI50 (OVCAR-5)?
Answer: > 100 µM (inactive)

Question: What about the GI50 (SNB-19) of the same molecule?
Answer: > 100 µM (inactive)
